Laboratory results: patent publication US20040110846A1, “Perylenequinones for use with immunotherapy agents” (priority 2004, published 2004)

Experiments:
EMT6 murine mastocytoma = assay: Sonosensitizing potential: LD50 in EMT6 cells in vitro for a fixed dose of ultrasound; assay type: cell-based
Excerpt: (§1) As used herein, “photopotentiation factor” refers to the property of the compound(s) to exert light- or sound-mediated toxicity in excess of its (their) inherent unactivated toxicity. In a preferred embodiment of the invention, the activation factor may be calculated as the ratio of the LD50 of cells treated without activation to the LD50 of the cells treated with an activated compound (drug LD50 divided by activated drug LD50). Where the term “LD50” has been used above, the term “IC50” may be substituted, to address the bioassays that concern metabolic activity rather than the endpoint of lethality, loss of reproductive capability, or clonogenic death. The relative photoactivation efficiency of a compound may also be determined using a clonogenic assay, an assay that is well known to those skilled in the art.
(§2) for a fixed dose of light or ultrasound

EMT6 murine = assay: Photosensitizing potential: LD50 in EMT6 cells in vitro for a fixed dose of light; assay type: cell-based
Excerpt: as §1, §2

[1] = Absorption (extinction coefficient) in the red spectral region compared with HB; assay type: physicochemical
Excerpt: A hypocrellin derivative of the present invention also includes 2-butylamino-2-demethoxy-hypocrellin B (2-BA-2-DMHB). […] Compared with its parent compound HB, its absorption bands extend toward longer wavelengths. The extinction coefficient at 583 nm was 2.5-fold as much as HB at 548 nm, and at 621 nm was over 3.8-fold as much as HB at 580 nm.

Substance | Sonosensitizing Potential (Molar Concentration which exerts LD50) (EMT6 murine mastocytoma) | Photosensitizing Potential (Molar Concentration which exerts LD50) (EMT6 murine) | extinction coefficient at 583 nm relative to HB at 548 nm ([1]; 583 nm vs HB at 548 nm) | extinction coefficient at 621 nm relative to HB at 580 nm ([1]; 621 nm vs HB at 580 nm)
2-(N,N-dimethyl-amino) propylamine-Hypocrellin B [HBDD-R1] | 1.0 mM | – | – | –
Methylamine-Hypocrellin B [HBMA-IV] | None | 1.0 µM | – | –
2-butylamino-2-demethoxy-Hypocrellin B [DMHBb] | 0.1 mM | 0.1 µM | 2.5 fold | over 3.8 fold
2-morpholino-ethylaminated HB [HBAM-R1] | None | 4.0 µM | – | –
Demethylated-HB [DMHBa] | 1.0 mM | 3.0 µM | – | –
Hypocrellin A [HA, reference compound] | None | 4.0 µM | – | –
Ethylenediamne-Hypocrellin B [HBED-R2] | None | 4.0 µM | – | –
